Assays:
[1] = molecular target: T1, α-chymotrypsin (Bos taurus, UniProt P00766); test: Inhibition of the serine protease α-chymotrypsin (Succ-Ala-Ala-Pro-Phe-AMC hydrolysis); assay type: biochemical; details: pH 7.5, 0.03 mM substrate
T1 construct: purchased Sigma Chem. Co. C-3142
Procedure: Additionally,because α-chymotrypsin is not a calcium sensitive enzyme and is constituitively active, following addition of inhibitor stocks to the 96 well plates, 100 ul of a 2 fold concentrated stock of enzyme in dilution buffer was first added and the reaction started by addition of 100 ul of a 2 fold concentrated stock of substrate in assay buffer. Substrate hydrolysis was monitored every 5 minutes up to 30 minutes using a Fluoroskan II ([…]).

[2] = molecular target: T2, Calpain I (Homo sapiens, UniProt P07384); test: Inhibition and rate of inactivation of calpain I (Succ-Leu-Tyr-MNA hydrolysis); assay type: biochemical; details: mean of three or more independent analyses, corrected for substrate, k2 = kapp(1+[S]/Km), read-out: k2 (second order rate constant of inactivation), A = Calpain I
T2 construct: Calpain I was purified from human red blood cells; from tissue; host or cells: human red blood cells (packed, outdated)
T2 sequence (P07384 1-714): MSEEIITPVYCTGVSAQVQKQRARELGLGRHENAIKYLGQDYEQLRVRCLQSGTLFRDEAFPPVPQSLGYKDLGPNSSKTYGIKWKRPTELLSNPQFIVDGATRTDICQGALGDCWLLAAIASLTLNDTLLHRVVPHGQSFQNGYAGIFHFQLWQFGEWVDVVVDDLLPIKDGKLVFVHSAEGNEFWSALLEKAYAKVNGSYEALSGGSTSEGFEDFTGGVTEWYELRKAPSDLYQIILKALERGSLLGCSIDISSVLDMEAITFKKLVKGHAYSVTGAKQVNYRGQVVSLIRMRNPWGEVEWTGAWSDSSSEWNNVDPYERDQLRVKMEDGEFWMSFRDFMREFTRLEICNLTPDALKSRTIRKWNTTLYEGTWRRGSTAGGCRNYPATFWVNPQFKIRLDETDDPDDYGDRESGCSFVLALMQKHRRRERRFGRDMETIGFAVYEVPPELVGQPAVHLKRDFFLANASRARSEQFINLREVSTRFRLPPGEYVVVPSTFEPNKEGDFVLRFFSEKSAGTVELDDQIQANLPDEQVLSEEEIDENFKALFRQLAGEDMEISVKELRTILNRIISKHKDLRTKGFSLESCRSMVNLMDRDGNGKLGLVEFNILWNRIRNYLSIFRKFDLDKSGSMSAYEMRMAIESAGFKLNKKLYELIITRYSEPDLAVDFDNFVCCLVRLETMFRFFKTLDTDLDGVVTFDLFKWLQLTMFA
T2 sequence (P04632 1-268 partner): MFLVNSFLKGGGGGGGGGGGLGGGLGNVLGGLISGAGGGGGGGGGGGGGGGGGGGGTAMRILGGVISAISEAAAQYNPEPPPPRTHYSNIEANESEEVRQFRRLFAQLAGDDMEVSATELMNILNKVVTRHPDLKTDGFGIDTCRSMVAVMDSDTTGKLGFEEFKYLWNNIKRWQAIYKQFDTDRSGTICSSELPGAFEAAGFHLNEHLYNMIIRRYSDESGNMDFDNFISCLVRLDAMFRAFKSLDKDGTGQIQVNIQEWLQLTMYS
Procedure: To evaluate inhibitory activity of our compounds, stocks (40 times concentrated) of each compound to be tested were prepared in 100% anhydrous dimethyl sulfoxide (DMSO) and 5 μl of each inhibitor preparation was aliquoted into each of three wells of a 96 well plate. Calpain I was purified from human red blood cells using a modification of the method described by Lee, W. J. et al. (Biochem. Internatl. (1990)22(1): 163-171). Briefly, 3 units of packed outdated red blood cells were washed 3× by repeated centrifugation at 500 rpm for 10 minutes through 900 mls of 0.9% NaCl. Cells were lysed in 20 mM Tris/1 mM EDTA/1 mM EGTA/5 mM mercaptoethanol (Buffer A) and centrifuged for 1 hour at 12,000 rpm in a GSA rotor using a Sorval centrifuge. The supernatant was collected and applied to a DEAE-sepharose FF column equilibrated in Buffer A+25 mM NaCl. After washing the column in Buffer A+25 mM NaCl, the bound protein was eluted at 117 ml/hr with a 25 mM to 150 mM NaCl linear gradient in Buffer A collecting 200, 10 mL fractions. Two μl of every fifth fraction was applied to nitrocelluose using a dot blot apparatus and calpain containing fractions identified by Western analysis. For detection of calpain, nitrocellulose sheets were first blocked in 5% Blotto (5% Carnation instant milk/10 mM Tris/[…]150 mM NaCl) for 30 minutes, followed by incubation for 1 hour in antibody directed against Calpain I (rabbit anti-human calpain I polyclonal sera, 1:1000 dilution in 5% Blotto). After three 5 minutes washes in 10 mM Tris/150 mM NaCl/0.05% Tween 20 the nitrocellulose was incubated for 1 hour in secondary alkaline phosphatase conjugated antibody (Biorad Cat#170-6518 1:2000 in 5% Blotto). After three 5 minutes washes in 10 mM Tris/150 mM NaCl/0.05% Tween 20 and 1 wash in 10 mM Tris/150 mM NaCl the nitrocellulose was incubated for up to 2 hours in a colorimetric substrate solution (Biorad Alkaline Phosphatase Substrate conjugate kit, cat#170-6432). The reaction was stopped by washing in water. After fractions containing calpain, and those in between, were pooled, solid ammonium sulfate was added to achieve a 30% solution and the mixture stirred for 1 hour at 4° C. Following collection of the precipitate by centrifugation for 1 hour at 4° C. at 12K rpm in a GSA rotor, the supernatant was collected and brought to 45% in ammonium sulfate. After stirring for 1 hour at 4° C., centrifugation was repeated. The supernatant was discarded and the precipitate resuspended in approximately 7 mls and dialyzed overnight at 4° C. against Buffer A+50 mM NaCl. The sample was then applied to a S300 gel filtration column preequilibrated in Buffer A+50 mM NaCl, washed and eluted at a flow rate of 20 ml/hr, collecting 200, 4 ml fractions. The peak of calpain was determined by assaying aliquots of every fifth fraction for enzyme activity monitored by the hydrolysis of a fluorogenic dipeptide substrate as described below. The peak fractions were pooled and the enzyme preparation used to test compounds for inhibitory activity. As an alternate to enzyme isolated from tissue sources, recombinant human calpain I has also been used to monitor compounds for inhibitory activity.
The foregoing enzyme preparation was diluted into assay buffer (i.e., 50 mM Tris, 50 mM NaCl, 1 mM EDTA, 1 mM EGTA, and 5 mM β-mercaptoethanol, pH 7.5 including 0.2 mM Succ-Leu-Tyr-MNA) and 175 μl aliquoted into the same wells containing the independent inhibitor stocks as well as to positive control wells containing 5 μl DMSO, but no compound. To start the reaction, 20 μl of 50 mM CaCl2 in assay buffer was added to all wells of the plate, excepting three, which were used as background signal baseline controls. Substrate hydrolysis was monitored every 5 minutes for a total of 30 minutes using Flouroskan II (ex=340 nm; em=430 nm). Substrate hydrolysis in the absence of inhibitor was linear for up to 15 minutes. […]

[3] = system: calpain I in Molt-4 cells (α-spectrin breakdown products); test: Inhibition of calpain activation in intact Molt-4 cells (calpain-generated spectrin breakdown products); assay type: cell-based; details: Homo sapiens, calcium and ionophore (ionomycin), read-out: % Inhibition of BDPs (10 μM)

- inhibition at 10 µM [1]: 91%
- kinact/KI [2]: 4000 M⁻¹ s⁻¹
SMILES: CC(C)C[C@H](NC(=O)OCc1ccccc1)C(=O)N[C@@H](Cc1ccccc1)C(=O)COn1cnc2ccccc21 [Example 22, 1-[N-[N-Benzyloxycarbonyl-L-leucyl]-(3S)-4-phenyl-3-amino-2-oxybutyloxy]benzimidazole]
- inhibition at 10 µM [3]: 61%
